These results are taken from US6537567B1, “Tissue-engineered tubular construct having circumferentially oriented smooth muscle cells” (Massachusetts Institute of Technology, priority 1997, dated 2003).

One test deals with Segments of neo-artery. As to the kind of experiment: Pharmacologic reactivity of vessel segments in myographs. The class given is cell-based. The note with it: for constriction response of vessel segment: prostaglandin F2α 10^−5 to 10^−4 M, serotonin 10^−6 to 10^−5 M, endothelin-1 10^−7, resting tension four grams. The procedure:
Segments of neo-artery three mm in length were assessed for reactivity to pharmacologic agents using techniques previously reported. Briefly, segments were placed in physiological saline bubbled with 95% O2 and 5% CO2, and mounted on tungsten wires in conventional myographs connected to a pen recorder. Freshly excised segments of rabbit abdominal aorta were used as controls. Vessels were maintained at a resting tension of four grams for 30 minutes prior to testing. Vessels were exposed to indomethacin 10^−5 M, LNNA 10^−4 M, norepinephrine 10^−6 M, prostaglandin F2α10^−5 to 10^−4 M, papavarine 10^−6 to 10^−5 M, serotonin 10^−6 to 10^−5 M, endothelin-1 10^−7 and potassium 30-60 mM. […] In some experiments, the magnitude of the constriction response was augmented by prior exposure to indomethacin.

A further test concerns smooth muscle cells. As to the kind of experiment: Growth of smooth muscle cells under externally applied physical forces. The format is cell-based. The note with it: response to externally applied physical forces such as pulsatile force. The procedure: For use in the methods of the present invention, several variations on standard cell growth media have been developed. […] In addition, for growing any cells which normally produce a substantial collagenous extracellular matrix, an “enhanced cell growth medium” has been developed which comprises standard cell growth medium, as described above, supplemented with 1-10 mM, preferably 5 mM, HEPES buffer; 0.01-0.1 g/L, preferably 0.02-0.06 g/L, Vitamin C; 0.01-0.1 g/L, preferably 0.02-0.06 g/L, proline; 0.01-0.1 g/L, preferably 0.02-0.06 g/L, glycine; 0.01-0.1 g/L, preferably 0.02-0.06 g/L, alanine; and 0.5-5.0 μg/L, preferably 1.0-3.0 μg/L, of a copper salt (e.g., CuSO4). Because Vitamin C has a half-life of only 6-8 hours at 37° C. in culture medium, Vitamin C is preferably replenished daily to enhance collagen synthesis by the cells. In addition, proline, glycine, and alanine are provided in excess to provide adequate amounts of these amino acids for the synthesis of collagen and other extracellular matrix proteins such as elastin. Copper ions are a necessary co-factor for elastin synthesis and, therefore, a source of copper ions (e.g., CuSO4) is preferably included in media used to grow elastin-rich tissues. For the growth of endothelial cells, it is preferred that CS be used rather than FBS. […]

In a further test the test system is smooth muscle cell. The note with it: cited from earlier work.
The test system of a further test is aortic endothelial cell. The conditions noted are these: cited from earlier work.

Regarding `COc1ccc2c(c1)c(CC(=O)O)c(C)n2C(=O)c1ccc(Cl)cc1` [indomethacin], the “effect of prior exposure on magnitude of the constriction response” value in the test on Segments of neo-artery (indomethacin 10^−5 M, in some experiments) is reported as “augmented”.
For the compound `COc1ccc(Cc2nccc3cc(OC)c(OC)cc23)cc1OC` [papavarine], in the test on Segments of neo-artery (papavarine 10^−6 to 10^−5 M), the “relaxation response of vessel segment” value is “relaxation”.
As to `NCCc1c[nH]c2ccc(O)cc12` [serotonin], the “constriction response of vessel segment” value in the test with Segments of neo-artery is on record as “reproducible constriction”.
As for `[H]/N=C(/N)N[C@H]1[C@H](O)[C@@H](O)[C@H](O[C@@H]2O[C@@H](C)[C@](O)(C=O)[C@H]2O[C@@H]2O[C@@H](CO)[C@H](O)[C@@H](O)[C@@H]2NC)[C@@H](N/C(N)=N\[H])[C@@H]1O` [streptomycin], in the test with smooth muscle cells, the “effect on development of the desired smooth muscle phenotype” value was “tends to inhibit the development of the desired phenotype”.
Consider PDGF, for which the “effect on smooth muscle cell proliferation” value in the test with smooth muscle cell was “stimulate smooth muscle cell proliferation”.
As to VEGF, the “effect on aortic endothelial cell growth” value in the test with aortic endothelial cell was “stimulate aortic endothelial cell growth”.
With aFGF: acidic fibroblast growth factor, the “effect on smooth muscle cell proliferation” value with smooth muscle cell was “stimulate smooth muscle cell proliferation”.
bFGF: basic fibroblast growth factor: the “effect on smooth muscle cell proliferation” value with smooth muscle cell is given as “stimulate smooth muscle cell proliferation”. Further, the “effect on aortic endothelial cell growth” value in the test on aortic endothelial cell is “stimulate aortic endothelial cell growth”.
With “endothelin-1 (CSCSSLMDKECVYFCHLDIIW; Endothelin-1; UniProt P05305 53-73, looked up)”, the “constriction response of vessel segment” value in the test on Segments of neo-artery was “reproducible constriction”.
On the same count and under the same terms, the entry for prostaglandin F2α is “reproducible constriction”.
